From US20090258836A1, “EFFECTIVE DELIVERY OF CROSS-SPECIES A3 ADENOSINE-RECEPTOR ANTAGONISTS TO REDUCE INTRAOCULAR PRESSURE” (The Trustees of The University of Pennsylvania, priority 2006, published 2009)
Entries after “also recorded” stand apart in the source; their conditions may differ.

Columns and labels:
mouse IOP [1] = assay: Mouse IOP after topical application, invasive servo-null micropipette system (SNMS); assay type: in vivo, Black Swiss mice; settings: for Δ(IOP) Servo-Null: endpoint 10 min
Protocol: (§1) The test animals were black Swiss outbred mice of mixed sex, 7-9 weeks old and 25-30 g in weight, obtained from Taconic Inc. (Germantown, N.Y.), and maintained under 12:12-h light/dark illumination cycle and allowed unrestricted access to food and water. Mice were anesthetized with intraperitoneal ketamine ([…]) supplemented by topical proparacaine HCl 0.5% (Allergan, Bausch & Lomb) for the IOP measurements. IOP was measured invasively (SNMS) and non-invasively by pneumotonometry in separate animals.
By the SNMS approach (Avila et al., supra, 2001), the exploring micropipette, of […] outer diameter, was filled with a highly conducting solution and advanced across the cornea into the anterior chamber. A refined technique by Wang et al., Invest. Opthalmol. Vis. Sci. (serial online) (Aug. 31, 2006) available at www.iovs.org/egi/letters/46/9/3274#422, enhanced stability and reduce the background noise of the records, permitting fabrication of micropipettes whose resistance is 0.1-0.3 MΩ, rather than the 0.25-0.4 MΩ used initially. The filling solution was reduced from 3M KCl to 2M NaCl, rather than 3 M KCl. The resistance of the filled micropipette was balanced in a bridge circuit, and the tip was then advanced across the cornea. Upon entering the anterior chamber of the eye, the IOP forces the much lower-conducting aqueous humor into the micropipette tip, displacing the original filling solution. The micropipette resistance was thereby increased, unbalancing the bridge circuit and triggering a bellows to provide a counter-pressure, restoring the position of the filling solution and returning the resistance to its initial value. Thus, the value of the counter-pressure equals the IOP. As in the past (Avila et al., supra, 2001), the stability of the records permitted continuous measurements for tens of minutes during the course of drug applications.
(§2) Ketamine HCl was purchased from Phoenix Pharmaceutical Inc. (St. Joseph, Mo.). Other drugs were obtained from Sigma Chemical (St. Louis, Mo.). Drugs were applied topically with an Eppendorf pipette. […] The final droplet solution contained the drugs at the stated concentrations together with <2% DMSO and 0.0005% benzalkonium chloride at an osmolality of 295-300 mOsm. DMSO was omitted, altogether, from droplets containing the hydrophilic compounds adenosine, carbachol and carboxyfluorescein.
(§3) Effects on invasively-measured IOP were measured 10 min after topical application because after this time, the continued presence of the micropipette can be associated with a downward drift of the IOP, even under control conditions. In contrast, smaller droplets ([…]) were applied to the eye more frequently (three times instead of once) with the non-invasive technique, in order to forestall drying of the eye associated with the airflow from the pneumotonometer. With the non-invasive protocol, the IOP was stable for 30 min under control conditions.
In Table 1, an endpoint of 10 minutes was used for the invasive measurements in light of the above-discussed downward drift of the IOP, even under control conditions. Also the need for smaller, more frequent droplets are discussed above with regard to the non-invasive technique using the pneumotonometer. As above, with the non-invasive protocol, the IOP was stable for 30 minutes under control conditions.

mouse IOP [2] = assay: Mouse IOP after topical application, non-invasive pneumotonometry; assay type: in vivo, Black Swiss mice; settings: for Δ(IOP) Pneumotonometer: 30 min
Protocol: as §1
By comparison, IOP was measured non-invasively by pneumotonometry (OBT) (Avila et al., supra, 2005). As previously described, the commercially available tip of the ocular blood tomography (OBT) pneumotonometer (Blood Flow Analyzer [BFA] probe tip; Paradigm Medical Industries Inc.) was fit to a custom-built mount. Air flow from a constant pressure source was passed through the mount to reach a diaphragm forming the end of the BFA tip. The flow of air displaces the diaphragm outward, permitting escape of the air through holes in the wall of the probe tip into the atmosphere. Pressure was monitored with a transducer connected through a T-connection to the base of the BFA tip. The probe assembly was advanced to the cornea with a three-axis micromanipulator. The probe tip was advanced sufficiently to make contact with the tear film, as was indicated by a shift in the baseline output reading. In a refined method, the tip was withdrawn until the […] was visually displaced from the tear film. The output was then adjusted to zero before advancing the tip again. Contact with the cornea depresses the diaphragm of the BFA tip, occluding access of the air flow to the escape holes and raising the pressure at the base of the tip.
This approach was simplified to expedite identification of the endpoint, and the probe was subsequently advanced in about 10 standardized steps of approximately […] at intervals of about 10 seconds to identify the inflection region (Wang et al., supra, 2006). […] The pneumotonometric estimates of IOP were previously found to agree with manometric measurements in cannulated preparations and with estimates obtained by the servo-null technique (Avila et al., supra, 2005). Having established the baseline value of IOP, the position along the axis of advance of the micromanipulator was noted, and the probe was retracted from contact with the cornea. Subsequent measurements of IOP at later time points were obtained by advancing the probe tip to the same position, with the placement of the mouse maintained stereotactically. The measurements were conducted at 10-min intervals to avoid potential artifacts associated with prolonged pressure on the cornea.
as §2, §3
In Table 1, an endpoint of 10 minutes was used for the invasive measurements in light of the above-discussed downward drift of the IOP, even under control conditions. […]

[3] = tested on: HCE (human ciliary epithelial) cell line, NPE cells; settings: Civan et al.; read-out: EC50 of isosmotic shrinkage of cultured human NPE cells; cited from earlier work
cultured human NPE cells = settings: cited from earlier work
[4] = tested on: HCE (human ciliary epithelial) cell line, NPE cells; assay: Cell volume in isosmotic solution (isosmotic shrinkage), Coulter Counter; assay type: cell-based; settings: 10 μM adenosine; 2 min preincubation with 300 nM MRS-1097, 100 nM MRS-1191 or 100 nM MRS-1523
Protocol: Cell Culture The HCE (human ciliary epithelial) cell line (Carre et al., supra, 1997) is an immortalized NPE cell line obtained from primary cultures of adult human epithelium. […] Eye Res. 57:3057-3063 (1993); Yantorno et al., Exp. Eye Res. 49:423-437 (1989)). […] Cells were passaged every 6-7 days and were studied 8-13 days after passage, after reaching confluence. An immortalized PE-cell line from a primary culture of bovine pigmented ciliary epithelium were also grown under matching conditions. Measurement of Cell Volume in Isosmotic Solution: The volume of PE and NPE cells was measured, since the movement of fluid underlies a change in PE and NPE cell volume, respectively. This is also thought to be the same as the movement of fluid which underlines the secretion of aqueous humor (FIG. 1). […] Parallel aliquots of cells were studied on the same day. One aliquot usually served as a control, and the others were exposed to different experimental conditions at the time of suspension. The same amount of solvent vehicle (dimethylformamide, DMSO or ethanol) was always added to the control and experimental aliquots. […] Cell volumes of isosmotic suspensions were measured with a Coulter Counter (model ZBI-Channelyzer II), using a 100 μm aperture (Civan et al., supra, 1994). As previously described (Wax et al., supra, 1993), the cell volume (vC) of the suspension was taken as the peak of the distribution function. Cell shrinkage was fit as a function of time (t) to a monoexpenential function: […]^0^)/τ] {1) where v∞ is the steady-state cell volume, v0 is the cell volume at the first point (t0) of the time course to be fit, and τ is the time constant of the shrinkage. For purposes of data reduction, the data were normalized to the first time point, taken to be 100% isotonic volume. Fits were obtained by nonlinear least-squares regression analysis, permitting both v∞ and τ to be variables. […] Med. Chem. 37:636-646 (1994; Jacobson et al., supra, 1995; Jacobson et al., FEBS Lett. 336:57-60 (1993)).

human A1 receptors = biological target: T1, human A1 receptors (Homo sapiens, UniProt P30542); settings: literature; read-out: Ki for the binding to human A1 receptors; cited from earlier work
T1 sequence (P30542 1-326): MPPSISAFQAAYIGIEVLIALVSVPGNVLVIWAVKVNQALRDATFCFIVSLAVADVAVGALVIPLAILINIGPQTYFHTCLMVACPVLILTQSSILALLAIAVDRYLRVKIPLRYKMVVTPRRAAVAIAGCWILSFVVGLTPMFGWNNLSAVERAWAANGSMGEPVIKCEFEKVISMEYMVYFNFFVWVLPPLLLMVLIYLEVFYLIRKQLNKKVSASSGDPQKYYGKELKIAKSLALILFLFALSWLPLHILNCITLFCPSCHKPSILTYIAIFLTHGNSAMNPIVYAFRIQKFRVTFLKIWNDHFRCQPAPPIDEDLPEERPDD

human A2A receptors = human A2A receptors (Homo sapiens, UniProt P29274); settings: literature; read-out: Ki for the binding to human A2A receptors; cited from earlier work
Chain of human A2A receptors (P29274 whole entry): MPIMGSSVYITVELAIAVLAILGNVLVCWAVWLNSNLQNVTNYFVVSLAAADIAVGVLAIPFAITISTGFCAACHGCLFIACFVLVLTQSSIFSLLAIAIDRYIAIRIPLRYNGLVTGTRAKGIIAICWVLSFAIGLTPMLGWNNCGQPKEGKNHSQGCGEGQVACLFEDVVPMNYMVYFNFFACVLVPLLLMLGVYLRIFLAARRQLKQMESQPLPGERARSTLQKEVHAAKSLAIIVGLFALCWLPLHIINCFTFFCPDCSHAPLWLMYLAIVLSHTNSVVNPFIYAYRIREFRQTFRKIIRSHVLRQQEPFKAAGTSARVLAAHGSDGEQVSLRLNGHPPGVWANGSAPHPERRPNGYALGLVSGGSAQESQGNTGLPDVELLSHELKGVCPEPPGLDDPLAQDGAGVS

human A3 receptors = biological target: T2, human A3 receptors (Homo sapiens, UniProt P0DMS8); settings: literature; read-out: Ki for the binding to human A3 receptors; cited from earlier work
T2 sequence (P0DMS8 1-318): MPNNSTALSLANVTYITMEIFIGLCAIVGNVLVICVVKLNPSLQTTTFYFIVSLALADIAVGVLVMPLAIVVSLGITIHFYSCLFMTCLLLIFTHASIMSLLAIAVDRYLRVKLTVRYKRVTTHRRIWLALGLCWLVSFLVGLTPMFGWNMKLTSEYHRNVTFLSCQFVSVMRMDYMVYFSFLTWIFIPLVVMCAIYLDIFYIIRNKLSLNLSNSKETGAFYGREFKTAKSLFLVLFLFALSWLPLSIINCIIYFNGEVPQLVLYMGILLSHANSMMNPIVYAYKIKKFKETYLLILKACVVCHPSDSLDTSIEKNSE

[5] = biological target: T3, human A2B adenosine receptor (Homo sapiens, UniProt P29275); assay: Potency at human A2B adenosine receptor; assay type: binding; settings: at 10 μM
T3 construct: expressed in transfected cells; host or cells: CHO cells (stably transfected)
T3 sequence (P29275 1-332): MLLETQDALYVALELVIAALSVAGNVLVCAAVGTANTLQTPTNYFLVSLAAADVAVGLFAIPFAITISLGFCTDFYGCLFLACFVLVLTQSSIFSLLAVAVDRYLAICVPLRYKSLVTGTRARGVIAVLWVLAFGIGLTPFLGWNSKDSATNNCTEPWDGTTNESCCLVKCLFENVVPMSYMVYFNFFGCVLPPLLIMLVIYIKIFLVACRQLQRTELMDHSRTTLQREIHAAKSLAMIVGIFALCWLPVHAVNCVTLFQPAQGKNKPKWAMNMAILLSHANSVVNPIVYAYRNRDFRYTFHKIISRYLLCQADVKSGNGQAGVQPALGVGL

rat A3 receptors = biological target: T4, rat A3 receptors (Rattus norvegicus, UniProt P28647); assay: Radioligand binding, [125I]AB-MECA, CHO cells; settings: means±SEM, N=3-4
T4 construct: expressed in transfected cells; host or cells: CHO cells (stably transfected)
T4 sequence (P28647 1-320): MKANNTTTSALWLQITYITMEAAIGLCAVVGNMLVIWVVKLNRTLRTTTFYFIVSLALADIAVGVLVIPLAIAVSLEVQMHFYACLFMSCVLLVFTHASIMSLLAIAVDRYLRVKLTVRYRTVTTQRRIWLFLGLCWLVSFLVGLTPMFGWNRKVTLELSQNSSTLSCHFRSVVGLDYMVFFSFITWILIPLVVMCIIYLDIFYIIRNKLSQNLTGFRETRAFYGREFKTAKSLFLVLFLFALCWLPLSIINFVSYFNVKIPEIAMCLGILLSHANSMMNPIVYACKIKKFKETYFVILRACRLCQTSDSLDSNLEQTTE

[6] = Dye penetration into the anterior chamber with or without corneal impalement; assay type: in vivo, mouse; settings: 0.003% droplet, 5 min, impaled eyes
Protocol: Whether drug penetration into the eye was influenced by corneal impalement by a micropipette was further tested by topically applying a […] containing 0.003% carboxyfluorescein ([…]) to both eyes of two mice. Carboxyfluorescein is a highly polar molecule that crosses the barrier layers of the eye poorly. In each mouse, an exploring micropipette was first advanced into the aqueous humor of one eye while the companion eye was not impaled. After 5 min, the dye was washed out with isotonic saline.

## Nc1ncnc2c1ncn2[C@@H]1O[C@H](CO)[C@@H](O)[C@H]1O [Adenosine, adenosine]
Mouse IOP [1]; SNMS, after 10 min, adenosine 10 mM, Cl-IB-MECA 200 nM droplet
  increase in IOP over baseline: 24.0±4.7 mmHg
Mouse IOP [1]; topical droplet 10 mM
  Δ(IOP) Servo-Null: +22.4 ± 6.5 mm Hg
Mouse IOP [2]; topical
  delay of the increase in IOP when measured non-invasively: about 10 minutes
Mouse IOP [2]; topical droplets 10 mM
  Δ(IOP) Pneumotonometer: +4.8 ± 1.7 mm Hg
[3]
  EC50: 3 to 10 µM
Cultured human NPE cells; 10 μM adenosine without antagonist
  time constant (τ) of the adenosine-triggered shrinkage: 3.8 ± 0.6 min
Cultured human NPE cells; 10 μM
  degree of shrinkage relative to control: increased the degree of shrinkage several-fold

## CCCOC(=O)c1c(-c2ccccc2)nc(CC)c(C(=O)SCC)c1CCC [MRS-1523]
[4]
  effect of A3 antagonist on adenosine-stimulated isotonic shrinkage of NPE cells: prevented the characteristic shrinkage; also recorded: blocked the shrinkage; also recorded: eliminated the actions of adenosine
Mouse IOP [1]; tested by the inventors, technique not given
  effect on IOP in the mouse (in words): found to lower IOP in the mouse
Human A1 receptors
  Ki: 15.6 µM
Human A2A receptors
  Ki: 2.05 µM
Human A3 receptors
  Ki: 0.019 µM

## OC1CSC(n2cnc3c(NCc4cccc(I)c4)nc(Cl)nc32)C1O (centres unmarked) [MRS-3820, 2-(2-chloro-6-(3-iodobenzylamino)-9H-purin-9-yl)tetrahydrothiophene-3,4-diol]
Mouse IOP [1]; topical droplet 5 μM (0.2% DMSO)
  Δ(IOP) Servo-Null: −2.2 ± 0.7 mm Hg
Mouse IOP [1]; topical droplet 25 μM (0.2% DMSO)
  Δ(IOP) Servo-Null: −4.9 ± 1.7 mm Hg
Mouse IOP [1]; topical droplet 75 μM (0.6% DMSO)
  Δ(IOP) Servo-Null: −3.1 ± 1.4 mm Hg
Mouse IOP [1]; topical droplet 250 μM (2% DMSO)
  Δ(IOP) Servo-Null: −1.5 ± 0.6 mm Hg
Mouse IOP [2]; 250 μM droplet
  time to significant reduction of non-invasively measured IOP: ≤ 20 min
Mouse IOP [2]; 250 μM droplet, normal mice, non-invasive, baseline 16.7±1.1
  reduction in IOP 30 minutes post-administration: 4.2±0.7 mmHg
Mouse IOP [2]; 250 μM, non-invasive
  reduction in IOP 20 min following application: 3.4±0.7 mm Hg
Mouse IOP [2]; topical droplets 25 μM (0.2% DMSO)
  Δ(IOP) Pneumotonometer: −0.6 ± 1.5 mm Hg
[5]
  potency at A2B: < 10%
Rat A3 receptors
  Ki: 0.0039 ± 0.0012 µM

## carboxyfluorescein
[6]
  fluorescence in the anterior chamber: Green fluorescence was observed in the anterior chamber of the impaled mouse eyes
